Where two headings read alike, the source gives them in different places. Non-standard residues stand in square brackets, D forms with d. Residues, ends and D or L forms follow the SMILES beside them. *: point of attachment. Phe(F5) = N[C@@H](Cc1c(F)c(F)c(F)c(F)c1F)C(=O)O; Phe(4-Cl) = N[C@@H](Cc1ccc(Cl)cc1)C(=O)O; hArg = N=C(N)NCCCC[C@H](N)C(=O)O; 12Ado = NCCCCCCCCCCCC(=O)O; Nle = CCCC[C@H](N)C(=O)O; Orn = NCCC[C@H](N)C(=O)O; Abu = CC[C@H](N)C(=O)O; PhAc = O=C(Cc1ccccc1)*
Tests used:
MX-1 breast cancer cells = assay: In vitro cell viability, MX-1; assay type: cell-based, human; settings: antagonist 5 μM for 72 h, cell proliferation assay; MIA602 = 1
Description: (§1) The inhibitory effects of the various synthesized GHRH antagonists were tested in cell proliferation assays in various human cancer cell lines including stomach cancer (KATOIII, N87), colon cancer (HT-29), urothelial cancer (J82, RT4), pancreatic cancer (PANC-1, CFPAC-1), prostatic cancer (PC3), breast cancer (MX-1, HCC1806), ovarian cancer (SK-OV-3, OVCAR-3) and lung cancer (HCC827, H460).
(§2) Cell culture. Human cancer cell lines including pancreatic (PANC-1 and CFPAC-1), lung (HCC827 and H460), stomach (NCI-N87 and KATOIII), urothelial (J82, RT4), prostatic (PC3), breast (MX-1 and HCC 1806), colorectal (HT-29), and ovarian (SK-OV-3 and OVCAR-3) were obtained from the American Type Culture Collection (ATCC) and cultured at 37° C. in a humidified 95% air/5% CO2 atmosphere in the medium recommended by ATCC.
(§3) In vitro cell viability. Cell viability was analyzed as follows: cancer cells including pancreatic (PANC-1 and CFPAC-1), lung (HCC827 and H460), stomach (NCI-N87 and KATOIII), urothelial (J82, RT4), prostatic (PC3) and breast (MX-1 and HCC 1806), colorectal (HT-29) and ovarian (SK-OV-3 and OVCAR-3) were grown on 96 well plates to ˜60% confluence, the cells were starved for 24 h in culture medium containing 0.5% FBS. Cells were then treated with GHRH antagonists MIA602 AVR compounds at concentrations of 1, 2.5 or 5 μM, or vehicle (0.1% DMSO) in quintuplicates for 72 hours. The medium was replaced every 48 hours. Cell viability was measured using CellTiter 96 aqueous one solution kit (Promega). Inhibitory effects of tested AVR compounds in comparison to that of MIA602 are presented as inhibitory potency.
(§4) Inhibitory effects of selected AVR compounds in comparison to that of MIA602 are presented as inhibitory potency (e.g., percentage of inhibition). […] The cell lines tested including lung cancer HCC827 (FIG. 2A), pancreatic cancer CFPAC-1 (FIG. 2B), stomach cancer N87 (FIG. 2C), colon cancer HT-29 (FIG. 2D), breast cancers MX-1 and HCC1806 (FIGS. 2 E, F). Based on the results of cell proliferation assay after cancer cells were treated with antagonist at concentration of 5 μM for 72H, the relative inhibitory potency of AVR antagonists in comparison to MIA-602 is summarized in Table 3 A and B. Over 60 AVR compounds were tested in 12 cancer cell lines.
(§5) Based on the results of cell proliferation assay after cancer cells were treated with antagonist at concentration of 5 µM for 72H, * at concentration of 2 µM for 72 H.

[1] = tested on: HCC1806 breast cancer cells; assay: In vitro cell viability, HCC1806; assay type: cell-based, human; settings: antagonist 5 μM for 72 h, cell proliferation assay; MIA602 = 1
Description: as §1, §2, §3, §4, §5

[2] = tested on: PC3 prostatic cancer cells; assay: In vitro cell viability, PC3; assay type: cell-based, human; settings: antagonist 5 μM for 72 h, cell proliferation assay; MIA602 = 1
Description: as §1, §2, §3
(§6) Inhibitory effects of selected AVR compounds in comparison to that of MIA602 are presented as inhibitory potency (e.g., percentage of inhibition). […] The cell lines tested including lung cancer HCC827 (FIG. 2A), pancreatic cancer CFPAC-1 (FIG. 2B), stomach cancer N87 (FIG. 2C), colon cancer HT-29 (FIG. 2D), breast cancers MX-1 and HCC1806 (FIGS. 2 E, F). […]

[3] = biological target: T1, membrane GHRH-receptors on human anterior pituitary cells (Homo sapiens, UniProt Q02643); assay: Receptor binding, displacement of 125I-[His1,Nle27]-hGH-RH(1-32)NH2 on human pituitary membranes
T1 construct: Human pituitary was purchased from the National Hormone and Peptide Program; tissue National Hormone and Peptide Program; host or cells: human pituitary (membrane fractions)
T1 sequence (Q02643 23-423): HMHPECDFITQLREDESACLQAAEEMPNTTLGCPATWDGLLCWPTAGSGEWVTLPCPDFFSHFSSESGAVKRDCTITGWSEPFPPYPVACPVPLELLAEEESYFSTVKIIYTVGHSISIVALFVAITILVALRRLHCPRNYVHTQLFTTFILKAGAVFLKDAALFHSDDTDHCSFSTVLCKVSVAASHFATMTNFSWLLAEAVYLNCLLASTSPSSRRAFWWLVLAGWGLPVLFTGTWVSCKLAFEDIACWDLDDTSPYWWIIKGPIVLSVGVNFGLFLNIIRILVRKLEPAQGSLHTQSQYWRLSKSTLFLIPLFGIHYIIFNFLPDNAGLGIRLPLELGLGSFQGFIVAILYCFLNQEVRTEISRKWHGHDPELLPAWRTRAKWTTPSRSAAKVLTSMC
Description: Receptor binding affinities in vitro. Preparation of human pituitary membrane fractions and receptor binding of analogs of GH-RH were performed (Halmos G, Rekasi Z, Szoke B, Schally A V. (1993) Receptor 3:87-97). Human pituitary was purchased from the National Hormone and Peptide Program. […] Relative affinities compared to hGH-RH(1-29)NH2 were calculated as the ratio of IC50 (dose causing 50% inhibition of specific binding to receptors) of the tested peptides to the IC50 of hGH-RH(1-29)NH2. The values were calculated from technical duplicate tubes.
Nineteen new AVR analogs of GHRH were tested in the receptor binding assay. Table 6 presents the IC50 values of GHRH antagonists to membrane GHRH-receptors binding on human anterior pituitary cells.

[4] = tested on: PANC-1 pancreatic cancer cells; assay: In vitro cell viability, PANC-1; assay type: cell-based, human; settings: antagonist 5 μM for 72 h, cell proliferation assay; MIA602 = 1
Description: as §1, §2, §3, §4

[5] = tested on: KATOIII stomach cancer cells; assay: In vitro cell viability, KATOIII; assay type: cell-based, human; settings: antagonist 5 μM for 72 h, cell proliferation assay; MIA602 = 1
Description: as §1, §2, §3, §4

[6] = tested on: CFPAC-1 pancreatic cancer cells; assay: In vitro cell viability, CFPAC-1; assay type: cell-based, human; settings: antagonist 5 μM for 72 h, cell proliferation assay; MIA602 = 1
Description: as §1, §2, §3, §4, §5

[7] = tested on: RT4 urothelial cancer cells; assay: In vitro cell viability, RT4; assay type: cell-based, human; settings: antagonist 5 μM for 72 h, cell proliferation assay; MIA602 = 1
Description: as §1, §2, §3, §6

[8] = tested on: J82 urothelial cancer cells; assay: In vitro cell viability, J82; assay type: cell-based, human; settings: antagonist 5 μM for 72 h, cell proliferation assay; MIA602 = 1
Description: as §1, §2, §3, §4

[9] = tested on: NCI-N87 stomach cancer cells; assay: In vitro cell viability (CellTiter 96), N87; assay type: cell-based, human; settings: antagonist 5 μM for 72 h, cell proliferation assay; MIA602 = 1
Description: as §1, §2, §3, §4, §5

HCC827 lung cancer cells = assay: In vitro cell viability, HCC827; assay type: cell-based, human; settings: antagonist 5 μM for 72 h, cell proliferation assay; MIA602 = 1
Description: as §1, §2, §3, §4, §5

| SMILES | relative inhibitory potency in comparison to MIA-602, Breast MX-1 (MX-1 breast cancer cells) | relative inhibitory potency in comparison to MIA-602, Breast IICC1806 [1] | relative inhibitory potency in comparison to MIA-602, Prostatic PC3 [2] | IC50 [3] [nM] | relative inhibitory potency in comparison to MIA-602, Pancreatic Panc-1 [4] | relative inhibitory potency in comparison to MIA-602, Stomach KATOIII [5] | relative inhibitory potency in comparison to MIA-602, Pancreatic CFPAC-1 [6] | relative inhibitory potency in comparison to MIA-602, Urothelial RT4 [7] | relative inhibitory potency in comparison to MIA-602, Urothelial J82 [8] | IC50 ([3]; membrane receptors on human anterior pituitary cells, mean of two to three determinations, read-out: IC50) [nM] | relative inhibitory potency in comparison to MIA-602, Stomach N87 [9] | relative inhibitory potency in comparison to MIA-602, Lung IICC827 (HCC827 lung cancer cells) |
| --- | --- | --- | --- | --- | --- | --- | --- | --- | --- | --- | --- | --- |
| CCCC[C@H](NC(=O)[C@@H](NC(=O)[C@H](CC(=O)O)NC(=O)[C@H](CCC(N)=O)NC(=O)[C@H](CC(C)C)NC(=O)[C@H](CC(C)C)NC(=O)[C@H](CCCCN)NC(=O)[C@H](CCCNC(=N)N)NC(=O)[C@H](C)NC(=O)[C@H](CO)NC(=O)[C@H](CC(C)C)NC(=O)[C@H](CCC(N)=O)NC(=O)[C@H](CC)NC(=O)[C@H](CC(C)C)NC(=O)[C@@H](NC(=O)[C@H](CCCCN)NC(=O)[C@H](CCCNC(=N)N)NC(=O)[C@H](Cc1ccc(O)cc1)NC(=O)[C@H](CCCNC(=N)N)NC(=O)[C@H](C)NC(=O)[C@@H](NC(=O)[C@H](Cc1ccc(Cl)cc1)NC(=O)[C@@H](NC(=O)[C@H](C)NC(=O)[C@H](CC(=O)O)NC(=O)[C@@H](CCCNC(=N)N)NC(=O)[C@H](Cc1ccc(O)cc1)NC(=O)CCCCCCCCCCCNC(=O)Cc1ccccc1)[C@@H](C)CC)[C@@H](C)O)C(C)C)[C@@H](C)CC)C(=O)N[C@H](CCCNC(=N)N)C(=O)N[C@@H](CCCCNC(=N)N)C(N)=O [AVR-107, PhAC-Ada-Tyr-DArg-Asp-Ala-Ile-Cpa-Thr-Ala-Arg-Tyr-Arg-Lys-Val-Leu-Abu-Gln-Leu-Ser-Ala-Arg-Lys-Leu-Leu-Gln-Asp-Ile-Nle-DArg-Har-NH2] ({PhAc-12Ado}-Y[dR]DAI[Phe(4-Cl)]TARYRKVL[Abu]QLSARKLLQDI[Nle][dR][hArg]-NH2) | 1.010 | 0.950 | 0.800 | 0.61 | 1.160 | 1.295 | 1.080 | – | – | – | – | – |
| CCCC[C@H](NC(=O)[C@@H](NC(=O)[C@H](CC(=O)O)NC(=O)[C@H](CCC(N)=O)NC(=O)[C@H](CC(C)C)NC(=O)[C@H](CC(C)C)NC(=O)[C@H](CCCN)NC(=O)[C@H](Cc1c[nH]cn1)NC(=O)[C@H](C)NC(=O)[C@H](CO)NC(=O)[C@H](CC(C)C)NC(=O)[C@H](CCC(N)=O)NC(=O)[C@H](CC)NC(=O)[C@H](CC(C)C)NC(=O)[C@@H](NC(=O)[C@H](CCCCN)NC(=O)[C@H](CCCNC(=N)N)NC(=O)[C@H](Cc1ccc(OC)cc1)NC(=O)[C@H](CCCNC(=N)N)NC(=O)[C@H](C)NC(=O)[C@@H](NC(=O)[C@H](Cc1ccc(Cl)cc1)NC(=O)[C@@H](NC(=O)[C@H](C)NC(=O)[C@H](CC(=O)O)NC(=O)[C@@H](CCCNC(=N)N)NC(=O)[C@H](Cc1ccc(O)cc1)NC(=O)CCCCCCCCCCCNC(=O)[C@H](N)Cc1ccccc1)[C@@H](C)CC)[C@@H](C)O)C(C)C)[C@@H](C)CC)C(=O)N[C@H](CCCNC(=N)N)C(=O)N[C@@H](CCCCNC(=N)N)C(N)=O [AVR-120, D-Phe-Ada-Tyr-DArg-Asp-Ala-Ile-Cpa-Thr-Ala-Arg-Tyr(Me)-Arg-Lys-Val-Leu-Abu-Gln-Leu-Ser-Ala-His-Orn-Leu-Leu-Gln-Asp-Ile-Nle-DArg-Har-NH2] (H-[dF][12Ado]Y[dR]DAI[Phe(4-Cl)]TARY(Me)RKVL[Abu]QLSAH[Orn]LLQDI[Nle][dR][hArg]-NH2) | – | – | – | – | 1.306 | 1.271 | 1.617 | 1.611 | 4.841 | 0.48 | 2.339 | 1.423 |
| CCCC[C@H](NC(=O)[C@@H](NC(=O)[C@H](CC(=O)O)NC(=O)[C@H](CCC(N)=O)NC(=O)[C@H](CC(C)C)NC(=O)[C@H](CC(C)C)NC(=O)[C@H](CCCN)NC(=O)[C@H](Cc1c[nH]cn1)NC(=O)[C@H](C)NC(=O)[C@H](CO)NC(=O)[C@H](CC(C)C)NC(=O)[C@H](CCC(N)=O)NC(=O)[C@H](CC)NC(=O)[C@H](CC(C)C)NC(=O)[C@@H](NC(=O)[C@H](CCCCN)NC(=O)[C@H](CCCNC(=N)N)NC(=O)[C@H](Cc1c(F)c(F)c(F)c(F)c1F)NC(=O)[C@H](CCCNC(=N)N)NC(=O)[C@H](C)NC(=O)[C@@H](NC(=O)[C@H](Cc1ccc(Cl)cc1)NC(=O)[C@@H](NC(=O)[C@H](C)NC(=O)[C@H](CC(=O)O)NC(=O)[C@@H](CCCNC(=N)N)NC(=O)[C@H](Cc1ccc(O)cc1)NC(=O)CCCCCCCCCCCNC(=O)Cc1ccccc1)[C@@H](C)CC)[C@@H](C)O)C(C)C)[C@@H](C)CC)C(=O)N[C@H](CCCNC(=N)N)C(=O)N[C@@H](CCCCNC(=N)N)C(N)=O [AVR-116, PhAC-Ada-Tyr-DArg-Asp-Ala-Ile-Cpa-Thr-Ala-Arg-5FPhe-Arg-Lys-Val-Leu-Abu-Gln-Leu-Ser-Ala-His-Orn-Leu-Leu-Gln-Asp-Ile-Nle-DArg-Har-NH2] ({PhAc-12Ado}-Y[dR]DAI[Phe(4-Cl)]TAR[Phe(F5)]RKVL[Abu]QLSAH[Orn]LLQDI[Nle][dR][hArg]-NH2) | – | – | – | 0.5 | 1.208 | 1.202 | 1.445 | – | 3.034 | – | 2.484 | 2.470 |

From patent US20210395327A1, “Growth Hormone-Releasing Hormone Antagonists and Uses Thereof” (United States Government As Represented By The Department …, priority 2019, published 2021)
